Laboratory results published in patent US9393447B2, “Liquid non-ionic salt-free skin and hair treatment composition that contains Lauroyl N-Methyl Glucamide” (Formula XO, Inc., priority 2013, dated 2016).

Assays:
[1] = Temperature at which LMG solutions solidify (gel) on cooling; assay type: physicochemical
Procedure: The pH was then adjusted to 4-5 with HC1. Separate solutions were also prepared with increasing final concentrations of decyl glucoside: 0.0, 0.5, 1.0, 2.0, 3.0, 4.0, 5.0, 6.0. The compositions were brought into clear, colorless single phase solutions by heating to 60° C. The solutions were then cooled in a refrigerated chamber and the temperature at which gelling occurred was noted. As the concentration of decyl glucoside increased the temperature at which the LMG solution gelled decreased, forming a non-gelling glass at decyl glucoside concentrations of 5% and above. Thus the addition of decyl glucoside at concentrations of 5% or greater to a solution of 10% LMG and 10% glycerol prevents stable gel formation, even at temperatures as low as −20° C.
Composition A was prepared as described in the above table.
At room temperature the solution was viscous in consistency. The solution solidified at 15° C. […] Such phase transitions in a commercial product are unacceptable.

## CCCCCCCCCCCC(=O)N(C)CC(O)C(O)C(O)C(O)CO (stereo not drawn) [LMG, Lauroyl N-Methyl Glucamide]
[1]; 0.2 wt % solution of LMG in water, 4° C.
  Physical state of solution: loose jelly-like solution
[1]; LMG 5-15 wt % in water
  Temperature at which hard gels form: about 35 °C
other
  melting point: ~ 60 °C
